The results in this text go back to patent US9751890B2, “Heteroaryl derivatives as CFTR modulators” (Vertex Pharmaceuticals Incorporated, priority 2008, dated 2017).

In the assay the target is T1, ΔF508-CFTR (Homo sapiens, UniProt P13569, DEL508-508).
T1 construct: expressed in transfected cells
As to the kind of experiment: Membrane potential optical assay for ΔF508-CFTR correction (single-addition HTS format). In kind it is cell-based. The note with it: NIH3T3 mouse fibroblasts stably expressing ΔF508-CFTR; 16-24 hrs with compound; activation with 10 μM forskolin and 20 μM genistein; read-out: BinnedMaxEfficacy (PercentActivity). From the text: Membrane potential optical methods for assaying ΔF508-CFTR modulation properties of compounds.
The assay utilizes fluorescent voltage sensing dyes to measure changes in membrane potential using a fluorescent plate reader (e.g., FLIPR III, Molecular Devices, Inc.) as a readout for increase in functional ΔF508-CFTR in NIH 3T3 cells. The driving force for the response is the creation of a chloride ion gradient in conjunction with channel activation by a single liquid addition step after the cells have previously been treated with compounds and subsequently loaded with a voltage sensing dye.
To identify small molecules that correct the trafficking defect associated with ΔF508-CFTR; a single-addition HTS assay format was developed. Assay Plates containing cells are incubated for ˜2-4 hours in tissue culture incubator at 37° C., 5% CO2, 90% humidity. Cells are then ready for compound exposure after adhering to the bottom of the assay plates.
The cells were incubated in serum-free medium for 16-24 hrs in tissue culture incubator at 37° C., 5% CO2, 90% humidity in the presence or absence (negative control) of test compound. The cells were subsequently rinsed 3× with Krebs Ringers solution and loaded with a voltage sensing redistribution dye. To activate ΔF508-CFTR, 10 μM forskolin and the CFTR potentiator, genistein (20 μM), were added along with Cl^−-free medium to each well. The addition of Cl^−-free medium promoted Cl^− efflux in response to ΔF508-CFTR activation and the resulting membrane depolarization was optically monitored using voltage sensor dyes.
Bath Solution #1: (in mM) NaCl 160, KCl 4.5, CaCl2 2, MgCl2 1, HEPES 10, pH 7.4 with NaOH.
Chloride-free bath solution: Chloride salts in Bath Solution #1 are substituted with gluconate salts.
NIH3T3 mouse fibroblasts stably expressing ΔF508-CFTR are used for optical measurements of membrane potential. The cells are maintained at 37° C. in 5% CO2 and 90% humidity in Dulbecco's modified Eagle's medium supplemented with 2 mM glutamine, 10% fetal bovine serum, 1×NEAA, β-ME, 1× pen/strep, and 25 mM HEPES in 175 cm^2 culture flasks. For all optical assays, the cells were seeded at ˜20,000/well in 384-well matrigel-coated plates and cultured for 2 hrs at 37° C. before culturing at 27° C. for 24 hrs. for the potentiator assay. For the correction assays, the cells are cultured at 27° C. or 37° C. with and without compounds for 16-24 hours.

T1 sequence (P13569 with tags, fused parts or gaps DEL508-508): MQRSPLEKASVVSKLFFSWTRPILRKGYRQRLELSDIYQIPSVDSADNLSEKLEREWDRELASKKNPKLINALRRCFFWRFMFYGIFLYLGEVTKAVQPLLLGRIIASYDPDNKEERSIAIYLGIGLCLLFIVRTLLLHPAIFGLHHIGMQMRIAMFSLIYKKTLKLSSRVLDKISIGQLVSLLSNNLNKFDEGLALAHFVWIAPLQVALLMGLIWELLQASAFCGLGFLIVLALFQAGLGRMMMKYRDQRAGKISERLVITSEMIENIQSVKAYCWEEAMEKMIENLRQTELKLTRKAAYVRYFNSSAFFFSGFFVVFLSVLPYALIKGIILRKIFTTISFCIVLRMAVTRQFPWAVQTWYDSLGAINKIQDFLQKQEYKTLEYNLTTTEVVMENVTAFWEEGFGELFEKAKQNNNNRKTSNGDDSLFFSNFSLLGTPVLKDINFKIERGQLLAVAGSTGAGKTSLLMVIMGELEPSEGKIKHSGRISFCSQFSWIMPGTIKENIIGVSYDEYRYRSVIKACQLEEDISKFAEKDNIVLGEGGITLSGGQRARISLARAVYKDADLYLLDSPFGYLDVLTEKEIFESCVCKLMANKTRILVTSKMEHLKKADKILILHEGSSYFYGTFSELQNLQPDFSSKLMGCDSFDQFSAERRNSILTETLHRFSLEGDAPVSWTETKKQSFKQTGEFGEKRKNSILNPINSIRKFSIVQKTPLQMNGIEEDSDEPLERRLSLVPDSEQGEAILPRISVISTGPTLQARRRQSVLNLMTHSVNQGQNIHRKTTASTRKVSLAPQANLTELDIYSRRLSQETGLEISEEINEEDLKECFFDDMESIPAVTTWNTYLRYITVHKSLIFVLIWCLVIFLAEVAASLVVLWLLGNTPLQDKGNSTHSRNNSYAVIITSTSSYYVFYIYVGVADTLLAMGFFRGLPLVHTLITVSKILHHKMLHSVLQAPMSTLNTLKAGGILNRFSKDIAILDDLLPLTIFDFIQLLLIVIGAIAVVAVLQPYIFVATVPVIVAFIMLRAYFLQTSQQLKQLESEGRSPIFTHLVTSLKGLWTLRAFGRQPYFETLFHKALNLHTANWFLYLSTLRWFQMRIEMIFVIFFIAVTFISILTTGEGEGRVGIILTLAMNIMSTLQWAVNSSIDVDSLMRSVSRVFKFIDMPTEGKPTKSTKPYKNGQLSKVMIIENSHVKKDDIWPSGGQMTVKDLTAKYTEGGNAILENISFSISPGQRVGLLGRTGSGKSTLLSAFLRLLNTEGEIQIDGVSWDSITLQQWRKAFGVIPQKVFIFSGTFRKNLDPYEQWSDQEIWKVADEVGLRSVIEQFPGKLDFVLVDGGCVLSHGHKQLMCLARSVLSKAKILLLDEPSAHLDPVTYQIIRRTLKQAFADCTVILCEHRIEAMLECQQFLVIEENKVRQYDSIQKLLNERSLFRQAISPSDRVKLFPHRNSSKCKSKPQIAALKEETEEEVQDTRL

For the compound `N#Cc1ccc(NC(=O)C2(c3ccc4c(c3)OCO4)CC2)cn1` [Compound 15, 1-(benzo[d][1,3]dioxol-5-yl)-N-(6-cyanopyridin-3-yl)cyclopropanecarboxamide], the Emax was in the range of 25 to 100%.

Consider `Cc1cnc(NC(=O)C2(c3ccc4c(c3)OC(F)(F)O4)CC2)nc1-c1ccc(=O)[nH]c1` [Compound 28, 1-(2,2-difluorobenzo[d][1,3]dioxol-5-yl)-N-(5-methyl-4-(6-oxo-1,6-dihydropyridin-3-yl)pyrimidin-2-yl)cyclopropanecarboxamide], for which the Emax is 25 to 100%.

In the case of `O=C(Nc1ccc(Cc2ccccc2)nc1)C1(c2ccc3c(c2)OCO3)CC1` [Compound 19, 1-(benzo[d][1,3]dioxol-5-yl)-N-(6-benzylpyridin-3-yl)cyclopropanecarboxamide], the Emax was above 100%.

Consider `Cc1ncc(NC(=O)C2(c3ccc4c(c3)OCO4)CC2)cc1-c1ccc(C(N)=O)cc1` [Compound 39], for which the Emax is 25 to 100%.

`Cc1ncc(NC(=O)C2(c3ccc4c(c3)OCO4)CC2)cc1-c1ccccc1` [Compound 42, 1-(benzo[d][1,3]dioxol-5-yl)-N-(6-methyl-5-phenylpyridin-3-yl)cyclopropanecarboxamide]: the Emax is above 100%.

For the compound `COc1ccccc1-c1ccc(NC(=O)C2(c3ccc4c(c3)OCO4)CC2)cn1` [Compound 24, 1-(benzo[d][1,3]dioxol-5-yl)-N-(6-(2-methoxyphenyl)pyridin-3-yl)cyclopropanecarboxamide], the Emax was above 100%.

Consider `Cc1ncc(NC(=O)C2(c3ccc4c(c3)OCO4)CC2)cc1-c1cccc(S(N)(=O)=O)c1` [Compound 20, 1-(benzo[d][1,3]dioxol-5-yl)-N-(6-methyl-5-(3-sulfamoylphenyl)pyridin-3-yl)cyclopropanecarboxamide], for which the Emax lay within 25 to 100%.

As to `Cc1c(NC(=O)C2(c3ccc4c(c3)OC(F)(F)O4)CC2)ccnc1-c1cccc(C(=O)O)c1` [Compound 9], the Emax lay in the range of 25 to 100%.

Consider `Cc1ncc(NC(=O)C2(c3ccc4c(c3)OCO4)CC2)cc1-c1cccc(S(=O)(=O)N(C)C)c1` [Compound 6], for which the Emax was 25 to 100%.

`COc1ccccc1Cc1ccc(NC(=O)C2(c3ccc4c(c3)OCO4)CC2)cn1` [Compound 3]: the Emax is above 100%.

For `Cc1cnc(NC(=O)C2(c3ccc4c(c3)OC(F)(F)O4)CC2)nc1-c1ccc(C(=O)O)cc1` [Compound 11, 4-(2-(1-(2,2-difluorobenzo[d][1,3]dioxol-5-yl)cyclopropanecarboxamido)-5-methylpyrimidin-4-yl)benzoic acid], the Emax lay within 25 to 100%.

Consider `O=C(Nc1cncc(Cc2ccccc2)n1)C1(c2ccc3c(c2)OCO3)CC1` [Compound 27, 1-(benzo[d][1,3]dioxol-5-yl)-N-(6-benzylpyrazin-2-yl)cyclopropanecarboxamide], for which the Emax is above 100%.

Take `Cc1ccc(S(=O)(=O)c2ncccc2NC(=O)C2(c3ccc4c(c3)OCO4)CC2)cc1` [Compound 18, 1-(benzo[d][1,3]dioxol-5-yl)-N-(2-tosylpyridin-3-yl)cyclopropanecarboxamide]: the Emax is above 100%.

Consider `O=C(Nc1cnc(Cc2ccccc2Cl)cn1)C1(c2ccc3c(c2)OCO3)CC1` [Compound 1, 1-(benzo[d][1,3]dioxol-5-yl)-N-(5-(2-chlorobenzyl)pyrazin-2-yl)cyclopropanecarboxamide], for which the Emax is above 100%.

Turning to `O=C(Nc1ncc2c(n1)-c1ccoc1CC2)C1(c2ccc3c(c2)OCO3)CC1` [Compound 23, 1-(benzo[d][1,3]dioxol-5-yl)-N-(5,6-dihydrofuro[2,3-h]quinazolin-2-yl)cyclopropanecarboxamide], the Emax lay in the range of 25 to 100%.

`Cc1ncc(NC(=O)C2(c3ccc4c(c3)OCO4)CC2)cc1-c1ccc(CO)cc1` [Compound 29]: the Emax was 25 to 100%.

`Cc1ncc(NC(=O)C2(c3ccc4c(c3)OCO4)CC2)cc1-c1cccc(CO)c1` [Compound 40]: the Emax was above 100%.

Regarding `Cc1cc(O)nc(NC(=O)C2(c3ccc4c(c3)OCO4)CC2)n1` [Compound 35, 1-(benzo[d][1,3]dioxol-5-yl)-N-(4-hydroxy-6-methylpyrimidin-2-yl)cyclopropanecarboxamide], the Emax is 25 to 100%.

On to `CC(C)c1ccc(NC(=O)C2(c3ccc4c(c3)OCO4)CC2)cn1` [Compound 31, 1-(Benzo[d][1,3]dioxol-5-yl)-N-(6-isopropylpyridin-3-yl)cyclopropanecarboxamide], for which the Emax lay in the range of 25 to 100%.

As for `Cc1cccc(Oc2ccc(NC(=O)C3(c4ccc5c(c4)OCO5)CC3)cn2)c1C` [Compound 26, 1-(benzo[d][1,3]dioxol-5-yl)-N-(6-(2,3-dimethylphenoxy)pyridin-3-yl)cyclopropanecarboxamide], the Emax is 25 to 100%.

With `COc1ccccc1Cc1ccc(NC(=O)C2(c3ccc4c(c3)OCO4)CC2)nn1` [Compound 4], the Emax was above 100%.

Take `COc1ccc(-c2nc(NC(=O)C3(c4ccc5c(c4)OC(F)(F)O5)CC3)ncc2C)cn1` [Compound 10, 1-(2,2-difluorobenzo[d][1,3]dioxol-5-yl)-N-(4-(6-methoxypyridin-3-yl)-5-methylpyrimidin-2-yl)cyclopropanecarboxamide]: the Emax was 25 to 100%.

Turning to `Cc1ncc(NC(=O)C2(c3ccc4c(c3)OCO4)CC2)cc1-c1cccc(C(N)=O)c1` [Compound 17], the Emax lay within 25 to 100%.

For the compound `Cc1ncc(NC(=O)C2(c3ccc4c(c3)OCO4)CC2)cc1-c1ccc(S(=O)(=O)N(C)C)cc1` [Compound 8], the Emax is above 100%.

On to `O=C(Nc1ccc(-c2ccccc2Cl)nc1)C1(c2ccc3c(c2)OCO3)CC1` [Compound 7, 1-(benzo[d][1,3]dioxol-5-yl)-N-(6-(2-chlorophenyl)pyridin-3-yl)cyclopropanecarboxamide], for which the Emax is above 100%.

Consider `COc1ccc(C2(C(=O)Nc3cnccn3)CC2)cc1` [Compound 21], for which the Emax lay in the range of 25 to 100%.

As for `Cc1cnc(NC(=O)C2(c3ccc4c(c3)OC(F)(F)O4)CC2)nc1-c1cccc(C(=O)O)c1` [Compound 45, 3-(2-(1-(2,2-difluorobenzo[d][1,3]dioxol-5-yl)cyclopropanecarboxamido)-5-methylpyrimidin-4-yl)benzoic acid], the Emax is 25 to 100%.

With `CC(Oc1ccc(Cl)cc1)c1ccnc(NC(=O)C2(c3ccc4c(c3)OCO4)CC2)n1` (centres unmarked) [Compound 14, 1-(benzo[d][1,3]dioxol-5-yl)-N-(4-(1-(4-chlorophenoxy)ethyl)pyrimidin-2-yl)cyclopropanecarboxamide], the Emax is above 100%.

Regarding `Cc1ncc(NC(=O)C2(c3ccc4c(c3)OCO4)CC2)cc1-c1cccc(C(=O)O)c1` [Compound 38, 3-(5-(1-(benzo[d][1,3]dioxol-5-yl)cyclopropanecarboxamido)-2-methylpyridin-3-yl)benzoic acid], the Emax lay within 25 to 100%.

For `O=C(Nc1ccc(Cc2ccccc2)nn1)C1(c2ccc3c(c2)OCO3)CC1` [Compound 44], the Emax fell in the range of 25 to 100%.

Turning to `O=C(Nc1ccc(-c2ccccc2)nc1)C1(c2ccc3c(c2)OCO3)CC1` [Compound 32, 1-(benzo[d][1,3]dioxol-5-yl)-N-(6-phenylpyridin-3-yl)cyclopropanecarboxamide], the Emax was above 100%.

With `COc1ccccc1Cc1cc(NC(=O)C2(c3ccc4c(c3)OCO4)CC2)ccn1` [Compound 47], the Emax is above 100%.

As to `O=C(Nc1ccc(Cc2ccccc2Cl)nc1)C1(c2ccc3c(c2)OCO3)CC1` [Compound 37, 1-(benzo[d][1,3]dioxol-5-yl)-N-(6-(2-chlorobenzyl)pyridin-3-yl)cyclopropanecarboxamide], the Emax is above 100%.

Take `O=C(Nc1ccc(Cc2ccccc2Cl)nn1)C1(c2ccc3c(c2)OCO3)CC1` [Compound 46]: the Emax was 25 to 100%.

Take `COc1ccccc1Cc1cncc(NC(=O)C2(c3ccc4c(c3)OCO4)CC2)n1` [Compound 33]: the Emax is above 100%.

As for `COc1ccccc1Nc1cnc(NC(=O)C2(c3ccc4c(c3)OCO4)CC2)cn1` [Compound 2, 1-(benzo[d][1,3]dioxol-5-yl)-N-(5-(2-methoxyphenylamino)pyrazin-2-yl)cyclopropanecarboxamide], the Emax is above 100%.

`O=C(Nc1cncc(Cc2ccccc2Cl)n1)C1(c2ccc3c(c2)OCO3)CC1` [Compound 13]: the Emax is above 100%.

Turning to `COc1cc(NC(=O)C2(c3ccc4c(c3)OCO4)CC2)nc(OC)n1` [Compound 22, 1-(benzo[d][1,3]dioxol-5-yl)-N-(2,6-dimethoxypyrimidin-4-yl)cyclopropanecarboxamide], the Emax was above 100%.
